Test results: patent US3997403A, “Antibiotic G-418 and the production thereof” (Schering Corporation, priority 1975, dated 1976)
Converted amounts (≈) assume the structure as drawn.

Experiments:
Staphylococcus aureus 6 = experiment: In Vitro Antibacterial Activity (Table V); format: cell-based; conditions: S. aureus 6, Mueller-Hinton Broth pH 7.2 - 7.5
Source text: (§1) In Table IV and Table V are set forth the in vitro antibacterial spectrum of Antibiotic G-418 against a variety of gram-positive and gram-negative bacteria using standard art recognized methods.
(§2) *Mueller -- Hinton Broth pH 7.2 - 7.5

Streptococcus sp. 27 = experiment: In Vitro Antibacterial Activity (Table V); format: cell-based; conditions: Mueller-Hinton Broth pH 7.2 - 7.5
Source text: as §1, §2

[1] = system: Pseudomonas aeruginosa 20; experiment: In Vitro Antibacterial Activity (Table V); format: cell-based; conditions: P. aeruginosa 20, Mueller-Hinton Broth pH 7.2 - 7.5
Source text: as §1, §2

[2] = system: Pseudomonas aeruginosa 1262; experiment: In Vitro Antibacterial Activity (Table V); format: cell-based; conditions: P. aeruginosa 1262, Mueller-Hinton Broth pH 7.2 - 7.5
Source text: as §1, §2

[3] = system: Staphylococcus aureus 1257; experiment: In Vitro Antibacterial Activity (Table V); format: cell-based; conditions: S. aureus 1257, Mueller-Hinton Broth pH 7.2 - 7.5
Source text: as §1, §2

Proteus morganii 8019 = experiment: In Vitro Antibacterial Activity (Table V); format: cell-based; conditions: Morganella morganii, Mueller-Hinton Broth pH 7.2 - 7.5
Source text: as §1, §2

Staphylococcus aureus 23 = experiment: In Vitro Antibacterial Activity (Table V); format: cell-based; conditions: S. aureus 23, Mueller-Hinton Broth pH 7.2 - 7.5
Source text: as §1, §2

Staphylococcus aureus 26 = experiment: In Vitro Antibacterial Activity (Table V); format: cell-based; conditions: S. aureus 26, Mueller-Hinton Broth pH 7.2 - 7.5
Source text: as §1, §2

Escherichia coli 777 = experiment: In Vitro Antibacterial Activity (Table V); format: cell-based; conditions: E. coli 777, Mueller-Hinton Broth pH 7.2 - 7.5
Source text: as §1, §2

Streptococcus sp. 6589 = experiment: In Vitro Antibacterial Activity (Table V); format: cell-based; conditions: Mueller-Hinton Broth pH 7.2 - 7.5
Source text: as §1, §2

Streptococcus sp. 30 = experiment: In Vitro Antibacterial Activity (Table V); format: cell-based; conditions: Mueller-Hinton Broth pH 7.2 - 7.5
Source text: as §1, §2

[4] = system: Staphylococcus aureus Gray; experiment: In vivo protective activity in infected mice; parameters: species or system Carworth Farms CF-1 mice; conditions: dosed 1 hour after i.p. lethal infection, survival at 48 hours
Experimental: (§3) In Table VI is set forth in vivo antibacterial data obtained with Antibiotic G-418. The host animals used to obtain the data were Carworth Farms CF-1 mice weighing about 18-20 g. In vivo protection (PD50) is determined by injecting the mice (in groups of seven) intraperitoneally with a lethal dose of pathogenic bacteria. The mice are dosed with Antibiotic G-418 1 hour later. The non-protected controls die in 18-24 hours whereas the survivors are alive 48 hours after infection when the test is terminated. The data is analyzed by standard probit procedures to determine PD50 values with 95% confidence limits.

[5] = system: Pseudomonas aeruginosa No. 1; experiment: In vivo protective activity in infected mice; parameters: species or system Carworth Farms CF-1 mice; conditions: S.C., dosed 1 hour after i.p. lethal infection, survival at 48 hours
Experimental: as §3

Eschericia coli Sc. = experiment: In vivo protective activity in infected mice; parameters: species or system Carworth Farms CF-1 mice; conditions: S.C., dosed 1 hour after i.p. lethal infection, survival at 48 hours
Experimental: as §3

[6] = system: Staphylococcus aureus St. M No. 1; experiment: In vivo protective activity in infected mice; parameters: species or system Carworth Farms CF-1 mice; conditions: S.C., dosed 1 hour after i.p. lethal infection, survival at 48 hours
Experimental: as §3

Acute Toxicity = experiment: Acute Toxicity; parameters: species or system Carworth Farms CF-1 mice; conditions: mouse, in vivo, iv, I.V.
[7] = system: Bacillus subtilis A.T.C.C. 6633; experiment: standard disc plate microbiological assay; format: cell-based; conditions: one microgram of the standard; Difco Antibiotic Medium No. 5
Source text: The assay is a standard disc plate assay using Difco Antibiotic Medium No. 5 and Bacillus subtilis A.T.C.C. 6633 as the test organism. The physical conditions of the test are substantially those described for neomycin (Grove and Randall), Assay Methods of Antibiotics published by Medical Encyclopedia Incorporated (1955). The assay is run against a standard preparation of Antibiotic G-418 having a defined potency of 1000 mcg/mg. […] The standard antibiotic sulfate salt assays about 750 mcg/mg. against the standard antibiotic base.

[8] = system: Staphylococcus aureus Gray; experiment: In Vitro Antibacterial Activity (Table IV); format: cell-based; conditions: S. aureus Gray, Tryptose Phosphate Broth pH 7.2 - 7.5, read-out: MIC (Minimum Inhibitory Concentration)
Source text: as §1
(§4) *Minimum Inhibitory Concentration -- Medium: Tryptose Phosphate Broth pH

[9] = system: Pseudomonas aeruginosa VA6; experiment: In Vitro Antibacterial Activity (Table IV); format: cell-based; conditions: P. aeruginosa VA6, Tryptose Phosphate Broth pH 7.2 - 7.5, read-out: MIC (Minimum Inhibitory Concentration)
Source text: as §1, §4

[10] = system: Staphylococcus aureus Ziegler; experiment: In Vitro Antibacterial Activity (Table IV); format: cell-based; conditions: S. aureus Ziegler, Tryptose Phosphate Broth pH 7.2 - 7.5, read-out: MIC (Minimum Inhibitory Concentration)
Source text: as §1, §4

Streptococcus sp. C = experiment: In Vitro Antibacterial Activity (Table IV); format: cell-based; conditions: Tryptose Phosphate Broth pH 7.2 - 7.5, read-out: MIC (Minimum Inhibitory Concentration)
Source text: as §1, §4

[11] = system: Klebsiella pneumoniae DA20; experiment: In Vitro Antibacterial Activity (Table IV); format: cell-based; conditions: K. pneumoniae DA20, Tryptose Phosphate Broth pH 7.2 - 7.5, read-out: MIC (Minimum Inhibitory Concentration)
Source text: as §1, §4

Streptococcus sp. C203 = experiment: In Vitro Antibacterial Activity (Table IV); format: cell-based; conditions: Tryptose Phosphate Broth pH 7.2 - 7.5, read-out: MIC (Minimum Inhibitory Concentration)
Source text: as §1, §4

[12] = system: Staphylococcus aureus Wood; experiment: In Vitro Antibacterial Activity (Table IV); format: cell-based; conditions: S. aureus Wood, Tryptose Phosphate Broth pH 7.2 - 7.5, read-out: MIC (Minimum Inhibitory Concentration)
Source text: as §1, §4

[13] = system: Staphylococcus aureus 209P; experiment: In Vitro Antibacterial Activity (Table IV); format: cell-based; conditions: S. aureus 209P, Tryptose Phosphate Broth pH 7.2 - 7.5, read-out: MIC (Minimum Inhibitory Concentration)
Source text: as §1, §4

[14] = system: Pseudomonas aeruginosa 37; experiment: In Vitro Antibacterial Activity (Table IV); format: cell-based; conditions: P. aeruginosa 37, Tryptose Phosphate Broth pH 7.2 - 7.5, read-out: MIC (Minimum Inhibitory Concentration)
Source text: as §1, §4

Escherichia coli Sc = experiment: In Vitro Antibacterial Activity (Table IV); format: cell-based; conditions: E. coli Sc, Tryptose Phosphate Broth pH 7.2 - 7.5, read-out: MIC (Minimum Inhibitory Concentration)
Source text: as §1, §4

Escherichia coli 894 = experiment: In Vitro Antibacterial Activity (Table IV); format: cell-based; conditions: E. coli 894, Tryptose Phosphate Broth pH 7.2 - 7.5, read-out: MIC (Minimum Inhibitory Concentration)
Source text: as §1, §4

Structure (SMILES): CN[C@@H]1[C@@H](O)[C@@H](O[C@@H]2[C@@H](O)[C@H](O[C@H]3O[C@H]([C@@H](C)O)[C@@H](O)[C@H](O)[C@H]3N)[C@@H](N)C[C@H]2N)OC[C@]1(C)O [Antibiotic G-418]
- MIC (Staphylococcus aureus 6): 0.3 µg/mL (≈ 0.604 µM)
- MIC (Streptococcus sp. 27): 7.5 µg/mL (≈ 15.1 µM)
- MIC [1]: 3 µg/mL (≈ 6.04 µM)
- MIC [2]: 17.5 µg/mL (≈ 35.2 µM)
- MIC [3]: 0.3 µg/mL (≈ 0.604 µM)
- MIC (Proteus morganii 8019): 0.8 µg/mL (≈ 1.61 µM)
- MIC (Staphylococcus aureus 23): 0.3 µg/mL (≈ 0.604 µM)
- MIC (Staphylococcus aureus 26): 3 µg/mL (≈ 6.04 µM)
- MIC (Escherichia coli 777): 3 µg/mL (≈ 6.04 µM)
- MIC (Streptococcus sp. 6589): 7.5 µg/mL (≈ 15.1 µM)
- MIC (Streptococcus sp. 30): 7.5 µg/mL (≈ 15.1 µM)
- PD50 ([4]; Oral): 40 mg/kg
- PD50 ([4]; S.C.): 2.5 mg/kg
- PD50 [5]: 5.0 mg/kg
- PD50 (Eschericia coli Sc.): 1.5 mg/kg
- PD50 [6]: 3.0 mg/kg
- LD50 (Acute Toxicity): 140 mg/kg
- zone of inhibition [7]: 16.5 ± 1.5 mm
- MIC [8]: 7.5 µg/mL (≈ 15.1 µM)
- MIC [9]: 3 µg/mL (≈ 6.04 µM)
- MIC [10]: 0.8 µg/mL (≈ 1.61 µM)
- MIC (Streptococcus sp. C): > 25 µg/mL
- MIC [11]: 3 µg/mL (≈ 6.04 µM)
- MIC (Streptococcus sp. C203): 17.5 µg/mL (≈ 35.2 µM)
- MIC [12]: 0.8 µg/mL (≈ 1.61 µM)
- MIC [13]: 0.8 µg/mL (≈ 1.61 µM)
- MIC [14]: 17.5 µg/mL (≈ 35.2 µM)
- MIC (Escherichia coli Sc): 3 µg/mL (≈ 6.04 µM)
- MIC (Escherichia coli 894): 7.5 µg/mL (≈ 15.1 µM)
